Laboratory results taken from patent US9388141B2, “Acylaminocycloalkyl compounds suitable for treating disorders that respond to modulation of dopamine D3 receptor” (AbbVie Deutschland GmbH & Co. KG, priority 2013, dated 2016).

Assays:
[1] = Determination of the microsomal half-life / microsomal clearance; assay type: in vitro ADME; details: human liver microsomes, 0.5 μM test substance, 0.25 mg microsomal protein/ml, pH 7.4, 37° C.
Procedure: The metabolic stability of the compounds of the invention was determined in the following assay.
The test substances were incubated in a concentration of 0.5 μM as follows:
0.5 μM test substance are preincubated together with liver microsomes from different species (from rat, human or other species) (0.25 mg of microsomal protein/ml) in 0.05 M potassium phosphate buffer of pH 7.4 in microtiter plates at 37° C. for 5 min. The reaction is started by adding NADPH (1 mg/mL). After 0, 5, 10, 15, 20 and 30 min, 50 μl aliquots are removed, and the reaction is immediately stopped and cooled with the same volume of acetonitrile. The samples are frozen until analyzed. The remaining concentration of undegraded test substance is determined by MSMS. The half-life (T1/2) is determined from the gradient of the signal of test substance/unit time plot, it being possible to calculate the half-life of the test substance, assuming first order kinetics, from the decrease in the concentration of the compound with time. The microsomal clearance (mCl) is calculated from mCl=1n2/T1/2/(content of microsomal protein in mg/ml)×1000 [[…]] (modified from references: Di, The Society for Biomoleculur Screening, 2003, 453-462; Obach, DMD, 1999 vol 27. N 11, 1350-1359).

[2] = target: T1, human dopamine D2L receptors (long isoform) (Homo sapiens, UniProt P14416); assay: Dopamine D2L receptor binding, [125I]-iodospiperone displacement; details: selectivity ratio Ki (D2L)/Ki (D3)
T1 construct: expressed in transfected cells; host or cells: HEK-293
T1 sequence (P14416 whole entry, canonical isoform): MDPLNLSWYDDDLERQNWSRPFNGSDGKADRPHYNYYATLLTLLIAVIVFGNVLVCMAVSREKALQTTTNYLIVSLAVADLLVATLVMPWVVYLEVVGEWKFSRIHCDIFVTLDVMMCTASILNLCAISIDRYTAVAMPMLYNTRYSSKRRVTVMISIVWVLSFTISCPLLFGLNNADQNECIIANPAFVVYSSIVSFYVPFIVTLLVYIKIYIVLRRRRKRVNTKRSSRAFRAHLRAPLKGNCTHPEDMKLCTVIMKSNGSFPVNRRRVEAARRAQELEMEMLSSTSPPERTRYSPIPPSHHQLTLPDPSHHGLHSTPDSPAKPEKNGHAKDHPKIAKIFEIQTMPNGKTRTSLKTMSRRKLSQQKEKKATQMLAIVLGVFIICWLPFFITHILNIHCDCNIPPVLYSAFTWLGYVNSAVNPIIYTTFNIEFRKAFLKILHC
Procedure: (§1) The substance to be tested was either dissolved in methanol/Chremophor® (BASF SE) or in dimethyl sulfoxide and then diluted with water to the desired concentration.
(§2) Each assay mixture was run in triplicate. • The incubation buffer contained 50 mM tris, 120 mM NaCl, 5 mM KCl, 2 mM CaCl2, 2 mM MgCl2 and 0.1% bovine serum albumin, 10 μM quinolone and 0.1% ascorbic acid (prepared fresh daily). […] Each assay mixture was run in triplicate. • The incubation buffer contained 50 mM tris, 120 mM NaCl, 5 mM KCl, 2 mM CaCl2, 2 mM MgCl2 and 0.1% bovine serum albumin. The buffer was adjusted to pH 7.4 with HCl. c) Measurement and Analysis: • After having been incubated at 25° C. for 60 minutes, the assay mixtures were filtered through a Whatman GF/B glass fiber filter under vacuum using a cell collecting device. The filters were transferred to scintillation viols using a filter transfer system. After 4 ml of Ultima Gold® (Packard) have been added, the samples were shaken for one hour and the radioactivity was then counted in a Beta-Counter (Packard, Tricarb 2000 or 2200CA).

[3] = target: T2, human dopamine D3 receptors (Homo sapiens, UniProt P35462); assay: Dopamine D3 receptor binding, [125I]-iodosulpride displacement; details: membranes of HEK-293 cells with human D3 receptors, 0.1 nM [125I]-iodosulpride
T2 construct: expressed in transfected cells; host or cells: HEK-293
T2 sequence (P35462 whole entry): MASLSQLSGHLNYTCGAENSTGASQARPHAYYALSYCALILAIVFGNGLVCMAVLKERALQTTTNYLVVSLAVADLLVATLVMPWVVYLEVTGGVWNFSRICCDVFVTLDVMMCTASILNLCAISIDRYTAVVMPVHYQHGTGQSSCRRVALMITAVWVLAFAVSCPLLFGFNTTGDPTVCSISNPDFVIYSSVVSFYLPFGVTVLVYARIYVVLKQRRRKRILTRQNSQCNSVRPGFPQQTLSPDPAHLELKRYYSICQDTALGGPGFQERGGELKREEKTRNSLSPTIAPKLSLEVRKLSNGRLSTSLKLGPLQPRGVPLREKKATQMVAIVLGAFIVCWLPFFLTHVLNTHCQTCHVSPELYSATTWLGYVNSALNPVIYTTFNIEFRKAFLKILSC
Procedure: as §1, §2

Compound | Human mCl [1] | D2/D3, Ki (D2L)/Ki (D3) [2] | Ki [3] [nM]
COCCc1cc(N2CCN(CC[C@H]3CC[C@@H](NC(=O)[C@H]4CC[C@@H](O)CC4)CC3)CC2)nc(C(C)(C)C)n1 [Compound 5, Cis-N-[cis-4-[2-[4-[2-tert-butyl-6-(2-methoxyethyl)pyrimidin-4-yl]piperazin-1-yl]ethyl]cyclohexyl]-4-hydroxy-cyclohexanecarboxamide] | ∘ (∘: >120 μl min^−1 mg^−1) | ++ (++>20) | < 50
COCCc1cc(N2CCN(CC[C@H]3CC[C@H](NC(=O)[C@H]4CC[C@@H](O)CC4)CC3)CC2)nc(C(C)(C)C)n1 [Compound 4, cis-N-[trans-4-[2-[4-[2-tert-butyl-6-(2-methoxyethyl)pyrimidin-4-yl]piperazin-1-yl]ethyl]cyclohexyl]-4-hydroxy-cyclohexanecarboxamide] | ∘ (∘: >120 μl min^−1 mg^−1) | ++ (++>20) | < 10
CC(C)c1cc(N2CCN(CC[C@H]3CC[C@H](NC(=O)[C@H]4CC[C@H](O)CC4)CC3)CC2)nc(C(C)(C)C)n1 [Compound 32, Trans-N-[trans-4-[2-[4-(2-tert-butyl-6-isopropyl-pyrimidin-4-yl)piperazin-1-yl]ethyl]cyclohexyl]-4-hydroxy-cyclohexanecarboxamide] | + (+: 20-120 μl min^−1 mg^−1) | ++ (++>20) | < 10
CC(C)(C)c1nc(N2CCN(CCC3CCC(NC(=O)C4CCC(O)CC4)CC3)CC2)cc(C2(C)CC2)n1 (stereo not shown) [Compound 27, N-[4-[2-[4-[2-tert-butyl-6-(1-methylcyclopropyl)pyrimidin-4-yl]piperazin-1-yl]ethyl]cyclohexyl]-4-hydroxy-cyclohexanecarboxamide] | + (+: 20-120 μl min^−1 mg^−1) | ++ (++>20) | < 10
COCc1cc(N2CCN(CC[C@H]3CC[C@H](NC(=O)[C@H]4C[C@@H](O)C4)CC3)CC2)nc(C(C)(C)C)n1 [Compound 40, cis-N-[trans-4-[2-[4-[2-tert-butyl-6-(methoxymethyl)pyrimidin-4-yl]piperazin-1-yl]ethyl]cyclohexyl]-3-hydroxy-cyclobutanecarboxamide] | + (+: 20-120 μl min^−1 mg^−1) |  | 
COCCc1cc(N2CCN(CC[C@H]3CC[C@@H](NC(=O)C4CC(O)(C(F)(F)F)C4)CC3)CC2)nc(C(C)(C)C)n1 (relative stereo) [Compound 26, N-[cis-4-[2-[4-[2-tert-butyl-6-(2-methoxyethyl)pyrimidin-4-yl]piperazin-1-yl]ethyl]cyclohexyl]-3-hydroxy-3-(trifluoromethyl)cyclobutanecarboxamide] | ++ (++: <20 μl min^−1 mg^−1) | +++ (+++>50) | < 50
CC(C)(C)c1cc(N2CCN(CC[C@H]3CC[C@H](NC(=O)[C@H]4CC[C@H](O)CC4)CC3)CC2)nc(C(C)(C)C)n1 [Compound 20, trans-N-[trans-4-[2-[4-(2,6-ditert-butylpyrimidin-4-yl)piperazin-1-yl]ethyl]cyclohexyl]-4-hydroxy-cyclohexanecarboxamide] | + (+: 20-120 μl min^−1 mg^−1) | ++ (++>20) | < 10
CC(C)(C)c1nc(C2CCC2)cc(N2CCN(CC[C@H]3C[C@H](NC(=O)[C@H]4CC[C@H](O)CC4)C3)CC2)n1 [Compound 9, Trans-N-[trans-3-[2-[4-(2-tert-butyl-6-cyclobutyl-pyrimidin-4-yl)piperazin-1-yl]ethyl]cyclobutyl]-4-hydroxy-cyclohexanecarboxamide] | + (+: 20-120 μl min^−1 mg^−1) | +++ (+++>50) | < 10
COCCc1cc(N2CCN(CC[C@H]3C[C@H](NC(=O)C4CCC(O)CC4)C3)CC2)nc(C(C)(C)C)n1 (relative stereo) [Compound 11, N-[trans-3-[2-[4-[2-tert-butyl-6-(2-methoxyethyl)pyrimidin-4-yl]piperazin-1-yl]ethyl]cyclobutyl]-4-hydroxy-cyclohexanecarboxamide] | + (+: 20-120 μl min^−1 mg^−1) | ++ (++>20) | < 10
COCCc1cc(N2CCN(CC[C@H]3CC[C@@H](NC(=O)[C@H]4C[C@@H](O)C4)CC3)CC2)nc(C(C)(C)C)n1 [Compound 17, cis-N-[cis-4-[2-[4-[2-tert-butyl-6-(2-methoxyethyl)pyrimidin-4-yl]piperazin-1-yl]ethyl]cyclohexyl]-3-hydroxy-cyclobutanecarboxamide] | ∘ (∘: >120 μl min^−1 mg^−1) | +++ (+++>50) | < 10
COCCc1cc(N2CCN(CC[C@H]3CC[C@H](NC(=O)C4CC(O)(C(F)(F)F)C4)CC3)CC2)nc(C(C)(C)C)n1 (relative stereo) [Compound 25, N-[trans-4-[2-[4-[2-tert-butyl-6-(2-methoxyethyl)pyrimidin-4-yl]piperazin-1-yl]ethyl]cyclohexyl]-3-hydroxy-3-(trifluoromethyl)cyclobutanecarboxamide] | ∘ (∘: >120 μl min^−1 mg^−1) | ++ (++>20) | < 10
CC(C)(C)c1nc(C2CCC2)cc(N2CCN(CC[C@H]3CC[C@H](NC(=O)C4CC(O)(C(F)(F)F)C4)CC3)CC2)n1 (relative stereo) [Compound 19, N-[trans-4-[2-[4-(2-tert-butyl-6-cyclobutyl-pyrimidin-4-yl)piperazin-1-yl]ethyl]cyclohexyl]-3-hydroxy-3-(trifluoromethyl)cyclobutanecarboxamide] | + (+: 20-120 μl min^−1 mg^−1) | + (+>10) | < 10
COCCc1cc(N2CCN(CCC3CCC(NC(=O)C4CCC(O)CC4)CC3)C[C@H]2C)nc(C(C)(C)C)n1 (stereo partly drawn) [Compound 33, N-[4-[2-[(3R)-4-[2-tert-butyl-6-(2-methoxyethyl)pyrimidin-4-yl]-3-methyl-piperazin-1-yl]ethyl]cyclohexyl]-4-hydroxy-cyclohexanecarboxamide] | + (+: 20-120 μl min^−1 mg^−1) | +++ (+++>50) | < 50
COCCc1cc(N2CCN(CC[C@H]3C[C@H](NC(=O)[C@H]4CC[C@H](O)CC4)C3)CC2)nc(C(C)(C)C)n1.O=C(O)C(F)(F)F [Compound 7, Trans-N-[trans-3-[2-[4-[2-tert-butyl-6-(2-methoxyethyl)pyrimidin-4-yl]piperazin-1-yl]ethyl]cyclobutyl]-4-hydroxy-cyclohexanecarboxamide; 2,2,2-trifluoroacetic acid] | + (+: 20-120 μl min^−1 mg^−1) | +++ (+++>50) | < 10
CC(C)(C)c1nc(C2CCC2)cc(N2CCN(CC[C@H]3CC[C@H](NC(=O)[C@H]4C[C@@H](O)C4)CC3)CC2)n1 [Compound 13, Cis-N-[trans-4-[2-[4-(2-tert-butyl-6-cyclobutyl-pyrimidin-4-yl)piperazin-1-yl]ethyl]cyclohexyl]-3-hydroxy-cyclobutanecarboxamide] | ∘ (∘: >120 μl min^−1 mg^−1) | ++ (++>20) | < 10
COCc1cc(N2CCN(CC[C@H]3CC[C@H](NC(=O)[C@H]4CC[C@H](O)CC4)CC3)CC2)nc(C(C)(C)C)n1 [Compound 37, trans-N-[trans-4-[2-[4-[2-tert-butyl-6-(methoxymethyl)pyrimidin-4-yl]piperazin-1-yl]ethyl]cyclohexyl]-4-hydroxy-cyclohexanecarboxamide] | + (+: 20-120 μl min^−1 mg^−1) | +++ (+++>50) | < 10
CC(C)(C)c1nc(C2CCC2)cc(N2CCN(CC[C@H]3CC[C@H](NC(=O)[C@H]4CC[C@@H](O)CC4)CC3)CC2)n1.O=C(O)C(F)(F)F [Compound 14, Cis-N-[trans-4-[2-[4-(2-tert-butyl-6-cyclobutyl-pyrimidin-4-yl)piperazin-1-yl]ethyl]cyclohexyl]-4-hydroxy-cyclohexanecarboxamide; 2,2,2-trifluoroacetic acid] | ∘ (∘: >120 μl min^−1 mg^−1) | ++ (++>20) | < 10
